This note sets out measurements from PubChem BioAssay (NCI).

Holding throughout (experiment): DTP human tumour cell line panel, 48 h
Experiment [1] concerns A549 NSCLC.
Experiment [2] has as its system CAKI-1 renal.
Experiment [3] deals with HCC-2998 colon.
Experiment [4] concerns HL-60(TB) leukemia.
Experiment [5] concerns M14 melanoma.
For experiment [6], the system named is NCI-H226 lung.
Experiment [7] deals with PC-3 prostate.
Experiment [8] deals with RXF 393 renal.
Experiment [9] concerns SK-MEL-2 melanoma.
Experiment [10] has as its system SNB-19 CNS.

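A five-concentration, 48-hour dose response in 96-well plates underlies each endpoint, interpolated linearly between surrounding concentrations. The concentration for 50% growth inhibition is given as GI50. TGI: concentration producing complete growth inhibition.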 Bounds are passed on as bounds.

Consider `CC[C@H](C)[C@H](NC(=O)C12CC(NC(C)=O)(C1)C2)C(=O)N(C)[C@H](C[C@@H](OC(C)=O)c1nc(C(=O)N[C@@H](Cc2ccccc2)C[C@H](C)C(=O)OC)cs1)C(C)C`, for which the GI50 in experiment [1] is 0.907 µM; in [2], 11.2 µM; in experiment [3], 0.21 µM; in experiment [4], 0.0522 µM; in [5] it was 0.13 µM; in experiment [6] it was greater than 7.53 µM. In addition, the GI50 is 0.194 µM in [7], 0.359 µM in [8], 0.108 µM in experiment [9] and 0.607 µM in [10]. Moreover, the TGI in experiment [1] is greater than 16.7 µM; in experiment [2] it was greater than 16.7 µM; in [3] it was greater than 16.7 µM; in [4] it was 0.21 µM; in [5] it was 1.88 µM; in experiment [6], greater than 16.7 µM. In addition, the TGI in [7], in experiment [8], in experiment [9] and in experiment [10] was greater than 16.7 µM throughout.
Regarding `CCCCCc1c(C)[nH]c(/C=c2\[nH]/c(=C3/C=c4ccccc4=N3)cc2OC)c1C`, the GI50 in [1] was 0.0732 µM; in experiment [2], 0.0425 µM; in experiment [3] it was 0.0452 µM; in experiment [4] it was 0.124 µM; in experiment [5] it was 0.0295 µM; in experiment [6], 0.0777 µM. The GI50 in experiment [7] was 0.0544 µM; in [8], 0.086 µM; in experiment [9] it was 0.0394 µM; in experiment [10], 0.226 µM. In addition, the TGI came to 0.636 µM in experiment [1]; 1.56 µM in experiment [2]; 5.88 µM in experiment [3]; 3.63 µM in [4]; 0.375 µM in experiment [5]; 3.95 µM in experiment [6]. The TGI in [7] is greater than 100 µM; in experiment [8], 0.755 µM; in experiment [9], 0.193 µM; in experiment [10] it was 15.4 µM.
With `CCN1C(=O)N(CC)C2C1NN=c1s/c(=C\c3ccccc3)c(=O)n12` (configuration not stated), the GI50 is 0.305 µM in [1]; 0.0717 µM in [2]; 0.282 µM in experiment [3]; 0.198 µM in experiment [4]; 0.104 µM in experiment [5]; 27.6 µM in experiment [6]. Also, the concentration for 50% growth inhibition (GI50) in experiment [7] is 0.157 µM; in [8] it was 0.0748 µM; in experiment [10], 0.537 µM. In addition, the TGI in experiment [1] was greater than 100 µM; in experiment [2], greater than 100 µM; in [3], greater than 100 µM; in experiment [4], 0.64 µM; in experiment [5] it was greater than 100 µM; in [6] it was greater than 100 µM. Also, the TGI in experiment [7], in experiment [8], in experiment [9] and in experiment [10] was greater than 100 µM throughout.
Regarding `O=C1c2cccc3cc([N+](=O)[O-])cc(c23)C(=O)N1O`, the TGI in experiment [1] is greater than 100 µM; in [2], greater than 100 µM; in experiment [3], 65.2 µM; in experiment [4], greater than 100 µM; in experiment [5], greater than 100 µM; in experiment [6], greater than 100 µM. The TGI in experiment [7], in experiment [8], in [9] and in experiment [10] was greater than 100 µM in each case.
Take `CN1CCN(c2ccc3nc4c(nc3c2C(F)(F)F)C(=O)c2ncccc2C4=O)CC1`: the GI50 was 1.21 µM in [1]; 1.2 µM in [2]; 1.21 µM in experiment [3]; 1.6 µM in experiment [4]; 1.32 µM in experiment [5]; 2.13 µM in [6]. Also, the GI50 in [7] was 1.44 µM; in [8] it was 1.46 µM; in [9], 2.05 µM; in [10], 1.66 µM. Besides, the TGI in [1] came out at 3.92 µM; in experiment [2], 2.75 µM; in [3], 2.63 µM; in experiment [4], 5.92 µM; in experiment [5], 2.86 µM; in experiment [6] it was 4.74 µM. Also, the TGI in [7] amounted to 11.5 µM; in [8] it was 3.15 µM; in experiment [9], 4.34 µM; in experiment [10], 5.7 µM.
`COc1cc2c3c(c1O)C1(C=CC(=O)C=C1)CC3N(C)CC2` (configuration not stated): the concentration for total growth inhibition (TGI) in [1] was greater than 100 µM; in experiment [2] it was 35.5 µM; in experiment [3], 24.8 µM; in [4], 10.9 µM; in experiment [5], 24.5 µM; in [6], greater than 100 µM. In addition, the TGI in experiment [7] came out at 31.1 µM; in experiment [8] it was 19.4 µM; in [9], 25.9 µM; in [10] it was 27.9 µM.
For the compound `C[C@@H]1CN2[C@H]3[C@@H]1CC[C@]31CCC(=O)O[C@]1(C)[C@@H]1CC[C@H]3CCC=C3[C@@H]12`, the GI50 in [1], in [2], in [3], in [4], in [5] and in experiment [6] was greater than 70 µM in each case. Further, the GI50 in [7], in [8], in experiment [9] and in experiment [10] was greater than 70 µM in each case. Further, the TGI in experiment [1], in experiment [2], in experiment [3], in experiment [4], in experiment [5] and in experiment [6] was greater than 70 µM each time. The TGI in experiment [7], in experiment [8], in experiment [9] and in experiment [10] was greater than 70 µM in each case.
As for `OC(c1ccccc1)c1c(-c2ccccc2)oc(-c2ccccc2)c1C(O)c1ccccc1` (configuration not stated), the total growth inhibition concentration (TGI) in experiment [1] came to 20.5 µM; in experiment [2], 30.4 µM; in experiment [3] it was 33 µM; in experiment [4], 6.13 µM; in experiment [5], 21.9 µM; in [6] it was 21.9 µM. In addition, the TGI in experiment [7] was 24.1 µM; in experiment [8], 21.5 µM; in experiment [9], 31.5 µM; in [10], 28.6 µM.
As to `Oc1[nH]c2ccc(Cl)cc2c1/C=c1/ccc2c(c1)N=C(c1cc(F)cc(F)c1)N=2`, the GI50 in experiment [2] is 5.1 µM; in experiment [3], 7.55 µM; in [4] it was 3.39 µM; in experiment [5], 2.18 µM; in [6], greater than 100 µM; in [7] it was 3.44 µM. In addition, the results for the GI50 in [8], in experiment [9] and in [10] were 3.37 µM, 3.24 µM and greater than 100 µM, respectively. The TGI in [2] was greater than 100 µM; in experiment [3], greater than 100 µM; in experiment [4], 7.23 µM; in experiment [5] it was 5.66 µM; in experiment [6] it was greater than 100 µM; in experiment [7], greater than 100 µM. The TGI in experiment [8] is 9.88 µM; in [9], 8.52 µM; in experiment [10], greater than 100 µM.
